Experimental data taken from patent US20230322722A1, “MODULATORS OF MYC FAMILY PROTO-ONCOGENE PROTEIN” (Nalo Therapeutics, priority 2020, published 2023).

Experiments:
Type in all cases: cell-based
MycN protein = molecular target: T1, MycN protein (Homo sapiens, UniProt P04198); assay: Degradation of MycN protein, Western blot, SKNBE2 cells (Example 160)
T1 construct: either 2×10^6 of L-363 (human leukemia cell line) or SKNBE2 (neuroblastoma cell line) cells; endogenous in cells; host or cells: SKNBE2 / SK-N-BE(2) neuroblastoma cells
T1 sequence (P04198 1-464): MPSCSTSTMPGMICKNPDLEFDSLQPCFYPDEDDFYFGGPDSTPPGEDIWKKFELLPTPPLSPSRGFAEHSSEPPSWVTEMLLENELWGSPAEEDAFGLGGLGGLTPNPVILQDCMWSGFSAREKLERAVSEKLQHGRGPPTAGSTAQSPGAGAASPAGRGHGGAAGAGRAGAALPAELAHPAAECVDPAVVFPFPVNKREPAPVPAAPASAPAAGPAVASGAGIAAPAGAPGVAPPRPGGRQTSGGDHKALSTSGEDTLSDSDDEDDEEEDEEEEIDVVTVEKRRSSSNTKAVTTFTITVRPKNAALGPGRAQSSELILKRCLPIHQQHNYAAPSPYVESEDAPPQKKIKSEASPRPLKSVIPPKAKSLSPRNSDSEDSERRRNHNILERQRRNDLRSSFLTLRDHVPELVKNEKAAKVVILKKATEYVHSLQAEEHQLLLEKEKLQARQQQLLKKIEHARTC
Description: (§1) In a T150 flask was plated either 2×10^6 of L-363 (human leukemia cell line) or SKNBE2 (neuroblastoma cell line) cells in a total of 30 mL containing Roswell Park Memorial Institute (RPMI) 1640 Medium (Thermo Fisher, Cat. #11875-085), 10% Fetal Bovine Serum (FBS, Thermo Fisher: Cat. #10437-028), 1% Penicillin/streptomycin (Thermo Fisher: Cat. #10378016), and 1% Amophotericin B (Thermo Fisher, Cat. #15290026). The cells were split every 72 hours by reseeding the L-363 or SKNBE2 cells, and the passage number was noted. It is noteworthy that cell cultures that were above 40 passages were not used, and most experiments were done with cells of less than 30 passages.
(§2) In a 6-well cell culture plate, a total of 3 mL of either 1×10^6 cells/mL of L-363 or SKNBE2 cells were seeded, resulting in a total of 3×10^6 cells per well. To each well containing 3 mL of either L-363 or SKNBE2 cell line was added 6 uL of MycN modulating compound (1 mM) and the resulting plate was shaken from left to right, and not swirled. After 6 hours, the cells were placed in a 15 mL falcon tube and spun at 500 Gs at 4° C. in a swinging bucket centrifuge. The medium was then carefully removed without disturbing the pellet. The pellet was then washed with 3 mLs of chilled phosphate buffered saline (PBS) and subjected to the spin cycle. PBS was then removed and the pellet was lysed in 200 uL of radioimmunoprecipitation (RIPA) lysis buffer (Thermo Fisher: Cat. #899000) that is supplemented with protease and phosphatase inhibitors (Thermo Fisher: Cat. #A32959). The cell lysate was then subjected to spinning in a centrifuge for 10 minutes at 13000 G at 4° C. The supernatant was then carefully transferred to a fresh eppendorf tube without disturbing the pellet (˜180 uL). The protein concentration of the cell lysate was then determined by using a bicinchoninic acid (BCA assay) according to manufacturer's protocol (Thermo Fisher: Cat. #23227).
(§3) Cell lysate, approximately 25 ug-30 ug, was loaded per well in a 4-20% polyacrylamide gel (Biorad. Cat. #5671094). After running the dye front off of the gel, the gel was transferred to a nitrocellulose membrane (Biorad: Cat. #1704159) using the transblot turbo system (Biorad: Cat. #1704150) according to manufacturer's protocol. After transferring for 30 minutes, the membrane was blocked with 5% BSA for 1 hour at room temperature. The BSA was then washed off and the primary antibody of choice (1:500) was added, and the membrane was incubated with the primary antibody at 4° C. for overnight. The next morning, the primary antibody was removed and the membrane was washed with 1×-TBST for 10 minutes and repeated three more times. Following the last wash, a secondary antibody (Molecular Devices. Cat. #R8209 or R8208) was added at 1:5000 dilution and incubated for 1 hour at room temperature. Following the incubation with the secondary antibody, the membrane was washed with 1×-TBST for 10 minutes and repeated three more times. Following the last wash, the membrane was washed with de-ionized water twice and dried for at least two hours. Once the membrane is completely dry, the Molecular Devices Spectra Max western system was used to observe the bands. The western image was saved and the band density was measured with ImageJ software.

MycC protein = molecular target: T2, MycC protein (Homo sapiens, UniProt P01106); assay: Degradation of MycC protein, Western blot, L-363 cells (Example 160); conditions: 6 h
T2 construct: either 2×10^6 of L-363 (human leukemia cell line) or SKNBE2 (neuroblastoma cell line) cells; endogenous in cells; host or cells: L-363 / L363 human leukemia cells
T2 sequence (P01106 whole entry): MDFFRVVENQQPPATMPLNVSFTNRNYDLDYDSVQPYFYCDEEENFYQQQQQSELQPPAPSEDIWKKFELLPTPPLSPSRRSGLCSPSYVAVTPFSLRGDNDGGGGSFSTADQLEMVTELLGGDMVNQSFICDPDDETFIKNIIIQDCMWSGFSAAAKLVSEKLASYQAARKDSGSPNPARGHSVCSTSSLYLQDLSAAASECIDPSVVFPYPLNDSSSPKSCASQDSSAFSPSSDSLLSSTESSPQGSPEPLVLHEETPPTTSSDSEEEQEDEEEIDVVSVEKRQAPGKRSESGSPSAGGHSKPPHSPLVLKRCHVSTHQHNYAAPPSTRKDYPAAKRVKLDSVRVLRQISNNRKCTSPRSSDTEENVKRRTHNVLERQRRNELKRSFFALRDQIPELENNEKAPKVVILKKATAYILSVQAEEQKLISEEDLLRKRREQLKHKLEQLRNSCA
Description: as §1, §2, §3

MycN protein (n-myc) = molecular target: T3, MycN protein (n-myc) (Homo sapiens, UniProt P04198); assay: Degradation of MycN protein, 24 h treatment, JESS Western, SK-N-BE(2) cells (Example 161); conditions: SKNBE2 cells
T3 construct: either 2×10^6 of L-363 (human leukemia cell line) or SKNBE2 (neuroblastoma cell line) cells; endogenous in cells; host or cells: SKNBE2 / SK-N-BE(2) neuroblastoma cells
T3 sequence (P04198 1-464): T1 sequence (P04198 1-464)
Description: (§4) For L363 cells (suspension), 1E6 cells were plated into each well of a 6 well plate. For SK-N-BE(2) cells (adherent), 5E5 cells were plated into each well of a 6 well dish. […] All compounds were diluted to 10 mM in DMSO. Cells were treated with the compound for 24 hrs, then for both cell types, media containing cells were removed from wells into a 15 ml centrifuge tube, and remaining adherent SK-N-BE(2) cells were also scraped from the wells into the appropriate tubes. Tubes were centrifuged, cells were washed with PBS then re-centrifuged to pellet cells. A RIPA buffer cocktail was added to the cells on ice for 5 mins. Cell lysates were clarified by centrifugation and stored at −80 degrees until required. BCA assay was performed on each lysate to determine the protein concentration.
(§5) For validation studies of antibodies, lysates and antibodies were used at a number of concentrations (Lysates: 2, 1, 0.2 mg/ml; Antibodies: 1 in 50, 1 in 200 dilution). Once an appropriate lysate concentration and antibody concentration was determined, samples were screened in the JESS technology (Protein Simple, San Jose, CA—https://www.proteinsimple.com/jess.html).
(§6) Target protein antibodies (n-myc and c-myc) were detected in the chemi-luminescence channel and loading controls (tubulin and GAPDH) were detected using a Near Infra Red (NIR) labeled secondary antibody.
(§7) For SK-N-EB2 adherent cells, 5E5 cells in 1.9 mls media were plated into 6 well dishes and incubated for 24 hrs. […] Cells were scrapped off the plate, centrifuged, washed with PBS, centrifuged, then a RIPA buffer cocktail added to the cells (100 ul), centrifuged and stored at −80 for later analysis. For L363 suspension cells, 1E6 cells were plated into […] (950 ul media) and incubated for 24 hrs. […] Cells were aspirated into tubes, centrifuged, washed with PBS, centrifuged, then a RIPA buffer cocktail added to the cells (100 ul), centrifuged and stored at −80 for later analysis.
(§8) For Western blot, a BCA (total protein) assay was run on all samples, these were then run in batches of 5 compounds plus control (DMSO) on each Western blot run—n-myc and c-myc were run in separate experiments in the chemiluminescence channel. Both tubulin and GAPDH were run as loading controls in all lanes in the near infra red channel.

MycC protein (c-myc) = molecular target: T4, MycC protein (c-myc) (Homo sapiens, UniProt P01106); assay: Degradation of MycC protein, 24 h treatment, JESS Western, L363 cells (Example 161); conditions: L-363 cells
T4 construct: either 2×10^6 of L-363 (human leukemia cell line) cells; endogenous in cells; host or cells: L-363 / L363 human leukemia cells
T4 sequence (P01106 whole entry): as above
Description: as §4, §5, §6, §7, §8

Row | Compound | inhibition at 2 µM (MycN protein; SKNBE2, 6 h) [%] | inhibition at 2 µM (MycC protein) [%] | inhibition at 6 µM (MycN protein (n-myc)) [%] | inhibition at 6 µM (MycC protein (c-myc)) [%] | also measured
1 | CN(c1nccc(Nc2cc(C3CC3)[nH]n2)n1)[C@H]1CC[C@H](NC(=O)N2Cc3cc(F)c(F)cc3C2)CC1 [Compound 12, N-((1R,4R)-4-((4-((5-cyclopropyl-1H-pyrazol-3-yl)amino)pyrimidin-2-yl)(methyl)amino)cyclohexyl)-5,6-difluoroisoindoline-2-carboxamide] | 50 to 79 | 80 to 100 | – | – | –
2 | Cn1nnc2cc(C(=O)N[C@H]3CC[C@H](N(C)c4nccc(Nc5cc(C6CC6)[nH]n5)n4)CC3)ccc21 [Compound 139, N-((1R,4R)-4-((4-((5-cyclopropyl-1H-pyrazol-3-yl)amino)pyrimidin-2-yl)(methyl)amino)cyclohexyl)-1-methyl-1H-benzo[d][1,2,3]triazole-5-carboxamide] | 80 to 100 | 80 to 100 | – | – | –
3 | CN(c1nccc(Nc2cc(C3CC3)[nH]n2)n1)[C@H]1CC[C@H](NS(=O)(=O)Cc2cccc(C(F)(F)F)c2)CC1 [Compound 152, N-((1R,4R)-4-((4-((5-cyclopropyl-1H-pyrazol-3-yl)amino)pyrimidin-2-yl)(methyl)amino)cyclohexyl)-1-(3-(trifluoromethyl)phenyl)methanesulfonamide] | 80 to 100 | 80 to 100 | – | – | –
4 | CN(c1nccc(Nc2cc(C3CC3)[nH]n2)n1)[C@H]1CC[C@H](NC(=O)c2cn3ccccc3n2)CC1 [Compound 117, N-((1R,4R)-4-((4-((5-cyclopropyl-1H-pyrazol-3-yl)amino)pyrimidin-2-yl)(methyl)amino)cyclohexyl)imidazo[1,2-a]pyridine-2-carboxamide] | 80 to 100 | 80 to 100 | – | – | –
5 | Cn1nnc(C(=O)N[C@H]2CC[C@H](N(C)c3nccc(Nc4cc(C5CCCC5)[nH]n4)n3)CC2)n1 [Compound 145, N-((1R,4R)-4-((4-((5-cyclopentyl-1H-pyrazol-3-yl)amino)pyrimidin-2-yl)(methyl)amino)cyclohexyl)-2-methyl-2H-tetrazole-5-carboxamide] | 50 to 79 | 80 to 100 | – | – | –
6 | CN(c1nccc(Nc2cc(C3CC3)[nH]n2)n1)C1CCC(CC(=O)NC2Cc3cc(F)c(F)cc3C2)CC1 (stereo not shown) [Compound 134, 2-(4-((4-((5-cyclopropyl-1H-pyrazol-3-yl)amino)pyrimidin-2-yl)(methyl)amino)cyclohexyl)-N-(5,6-difluoro-2,3-dihydro-1H-inden-2-yl)acetamide] | – | 80 to 100 | – | – | inhibition at 2 µM (MycN protein; 6 h): 20 to 49%
7 | CN(c1nccc(Nc2cc(C3CC3)[nH]n2)n1)C1CCN(CC(=O)Nc2cccc(C(F)(F)F)c2)CC1 [Compound 1, 2-(4-((4-((5-cyclopropyl-1H-pyrazol-3-yl)amino)pyrimidin-2-yl)(methyl)amino)piperidin-1-yl)-N-(3-(trifluoromethyl)phenyl)acetamide] | – | 80 to 100 | – | – | inhibition at 2 µM (MycN protein; 6 h): 50 to 79%
8 | CC(C(=O)Nc1cccc(S(C)(=O)=O)c1)N1CCC(N(C)c2nccc(Nc3cc(C4CC4)[nH]n3)n2)CC1 (stereo not shown) [Compound 9] | – | 80 to 100 | – | – | inhibition at 2 µM (MycN protein; 6 h): 80 to 100%
9 | CN(c1nccc(Nc2cc(C3CCCC3)[nH]n2)n1)C1CCNCC1 [Compound 18, N4-(5-Cyclopentyl-1H-pyrazol-3-yl)-N2-methyl-N2-(piperidin-4-yl)pyrimidine-2,4-diamine] | – | – | 80 to 100 | 80 to 100 | inhibition at 1 µM (MycN protein (n-myc)): 20 to 49%; inhibition at 3 µM (MycN protein (n-myc)): 80 to 100%; inhibition at 1 µM (MycC protein (c-myc)): 80 to 100%; inhibition at 3 µM (MycC protein (c-myc)): 80 to 100%
10 | CN(c1nccc(Nc2cc(C3CC3)[nH]n2)n1)C1CC2(C1)CN(Cc1cccc(OC(F)(F)F)c1)C2 [Compound 27, N4-(5-Cyclopropyl-1H-pyrazol-3-yl)-N2-methyl-N2-(2-(3-(trifluoromethoxy)benzyl)-2-azaspiro[3.3]heptan-6-yl)pyrimidine-2,4-diamine] | – | – | < 20 | 80 to 100 | inhibition at 0.5 µM (MycN protein (n-myc)): 20 to 49%; inhibition at 1 µM (MycN protein (n-myc)): 20 to 49%; inhibition at 0.5 µM (MycC protein (c-myc)): < 20%; inhibition at 1 µM (MycC protein (c-myc)): 20 to 49%; inhibition at 3 µM (MycC protein (c-myc)): 50 to 79%
11 | CN(c1nccc(Nc2cc(C3CC3)[nH]n2)n1)C1CC2(C1)CN(CC1CCOCC1)C2 [Compound 20, N4-(5-Cyclopropyl-1H-pyrazol-3-yl)-N2-methyl-N2-{2-[(oxan-4-yl)methyl]-2-azaspiro[3.3]heptan-6-yl}pyrimidine-2,4-diamine] | – | – | 50 to 79 | 80 to 100 | inhibition at 3 µM (MycN protein (n-myc)): 20 to 49%
12 | CN(c1nccc(Nc2cc(C3CC3)[nH]n2)n1)C1CC2(C1)CN(CCCc1nc3ccccc3o1)C2 [Compound 29, N2-(2-(3-(Benzo[d]oxazol-2-yl)propyl)-2-azaspiro[3.3]heptan-6-yl)-N4-(5-cyclopropyl-1H-pyrazol-3-yl)-N2-methylpyrimidine-2,4-diamine] | – | – | 80 to 100 | 80 to 100 | inhibition at 0.5 µM (MycN protein (n-myc)): 20 to 49%; inhibition at 1 µM (MycN protein (n-myc)): 20 to 49%; inhibition at 3 µM (MycN protein (n-myc)): 50 to 79%; inhibition at 0.5 µM (MycC protein (c-myc)): 50 to 79%; inhibition at 1 µM (MycC protein (c-myc)): 80 to 100%; inhibition at 3 µM (MycC protein (c-myc)): 80 to 100%
